Measured values as given in the NIST ThermoML archive (doi:10.1016/j.jct.2014.05.016).
± gives the expanded uncertainty stated by the source.

Assay: xn = mol fraction of the nth substance listed
Conditions: 100 kPa, Liquid; for mass density: Vibrating tube method; for viscosity: Concentric cylinders viscometry

C[n+]1ccn(CCO)c1.F[B-](F)(F)F [1-(2-hydroxyethyl)-3-methylimidazolium tetrafluoroborate] + CCCCn1cc[n+](C)c1.F[B-](F)(F)F
Conditions	mass density [kg/m3]	viscosity [mPa·s]
318.15 K, x1 = 0.101	1199.8 ± 1.1	–
318.15 K, x1 = 0.201	1213.5 ± 1.1	–
318.15 K, x1 = 0.3002	1227.8 ± 1.1	–
318.15 K, x1 = 0.4006	1243.6 ± 1.1	–
318.15 K, x1 = 0.5009	1258.1 ± 1.1	–
318.15 K, x1 = 0.5991	1274.1 ± 1.1	–
318.15 K, x1 = 0.7001	1293.8 ± 1.1	–
318.15 K, x1 = 0.8	1307.8 ± 1.1	–
318.15 K, x1 = 0.8995	1325.7 ± 1.1	–
318.15 K, x1 = 1	1343.7 ± 1.1	–
323.15 K, x1 = 0.1003	–	35.84 ± 2.9
323.15 K, x1 = 0.101	1196.3 ± 1.1	–
323.15 K, x1 = 0.2001	–	35.27 ± 2.8
323.15 K, x1 = 0.201	1209.9 ± 1.1	–
323.15 K, x1 = 0.2997	–	35.51 ± 2.9
323.15 K, x1 = 0.3002	1224.2 ± 1.1	–
323.15 K, x1 = 0.3999	–	35.68 ± 2.9
323.15 K, x1 = 0.4006	1240 ± 1.1	–
323.15 K, x1 = 0.4996	–	35.08 ± 2.8
323.15 K, x1 = 0.5009	1254.5 ± 1.1	–
323.15 K, x1 = 0.5991	1270.4 ± 1.1	35.69 ± 2.9
323.15 K, x1 = 0.6997	–	35.78 ± 2.9
323.15 K, x1 = 0.7001	1290.3 ± 1.1	–
323.15 K, x1 = 0.7999	–	36.02 ± 2.9
323.15 K, x1 = 0.8	1304.1 ± 1.1	–
323.15 K, x1 = 0.8995	1322 ± 1.1	–
323.15 K, x1 = 0.8998	–	36.55 ± 2.9
323.15 K, x1 = 1	1340.1 ± 1.1	36.5 ± 2.9
328.15 K, x1 = 0.1003	–	29.96 ± 2.4
328.15 K, x1 = 0.101	1192.8 ± 1.1	–
328.15 K, x1 = 0.2001	–	29.52 ± 2.4
328.15 K, x1 = 0.201	1206.5 ± 1.1	–
328.15 K, x1 = 0.2997	–	29.75 ± 2.4
328.15 K, x1 = 0.3002	1220.7 ± 1.1	–
328.15 K, x1 = 0.3999	–	29.9 ± 2.4
328.15 K, x1 = 0.4006	1236.4 ± 1.1	–
328.15 K, x1 = 0.4996	–	29.42 ± 2.4
328.15 K, x1 = 0.5009	1250.9 ± 1.1	–
328.15 K, x1 = 0.5991	1266.8 ± 1.1	29.91 ± 2.4
328.15 K, x1 = 0.6997	–	29.95 ± 2.4
328.15 K, x1 = 0.7001	1286.7 ± 1.1	–
328.15 K, x1 = 0.7999	–	30.13 ± 2.4
328.15 K, x1 = 0.8	1300.5 ± 1.1	–
328.15 K, x1 = 0.8995	1318.3 ± 1.1	–
328.15 K, x1 = 0.8998	–	30.58 ± 2.4
328.15 K, x1 = 1	1336.4 ± 1.1	30.46 ± 2.4
333.15 K, x1 = 0.1003	–	25.35 ± 2
333.15 K, x1 = 0.101	1189.3 ± 1.1	–
333.15 K, x1 = 0.2001	–	25.03 ± 2
333.15 K, x1 = 0.201	1203 ± 1.1	–
333.15 K, x1 = 0.2997	–	25.2 ± 2
333.15 K, x1 = 0.3002	1217.2 ± 1.1	–
333.15 K, x1 = 0.3999	–	25.27 ± 2
333.15 K, x1 = 0.4006	1232.9 ± 1.1	–
333.15 K, x1 = 0.4996	–	24.96 ± 2
333.15 K, x1 = 0.5009	1247.6 ± 1.1	–
333.15 K, x1 = 0.5991	1263.2 ± 1.1	25.36 ± 2
333.15 K, x1 = 0.6997	–	25.41 ± 2
333.15 K, x1 = 0.7001	1283.1 ± 1.1	–
333.15 K, x1 = 0.7999	–	25.55 ± 2.1
333.15 K, x1 = 0.8	1296.8 ± 1.1	–
333.15 K, x1 = 0.8995	1314.7 ± 1.1	–
333.15 K, x1 = 0.8998	–	25.83 ± 2.1
333.15 K, x1 = 1	1332.8 ± 1.1	25.73 ± 2.1
338.15 K, x1 = 0.1003	–	21.68 ± 1.7
338.15 K, x1 = 0.101	1185.9 ± 1.1	–
338.15 K, x1 = 0.2001	–	21.42 ± 1.7
338.15 K, x1 = 0.201	1199.5 ± 1.1	–
338.15 K, x1 = 0.2997	–	21.57 ± 1.7
338.15 K, x1 = 0.3002	1213.7 ± 1.1	–
338.15 K, x1 = 0.3999	–	21.63 ± 1.7
338.15 K, x1 = 0.4006	1229.4 ± 1.1	–
338.15 K, x1 = 0.4996	–	21.39 ± 1.7
338.15 K, x1 = 0.5009	1244.1 ± 1.1	–
338.15 K, x1 = 0.5991	1259.7 ± 1.1	21.68 ± 1.7
338.15 K, x1 = 0.6997	–	21.72 ± 1.7
338.15 K, x1 = 0.7001	1279.5 ± 1.1	–
338.15 K, x1 = 0.7999	–	21.81 ± 1.8
338.15 K, x1 = 0.8	1293.2 ± 1.1	–
338.15 K, x1 = 0.8995	1311.1 ± 1.1	–
338.15 K, x1 = 0.8998	–	22.08 ± 1.8
338.15 K, x1 = 1	1329.2 ± 1.1	21.98 ± 1.8
343.15 K, x1 = 0.1003	–	18.71 ± 1.5
343.15 K, x1 = 0.101	1182.4 ± 1.1	–
343.15 K, x1 = 0.2001	–	18.51 ± 1.5
343.15 K, x1 = 0.201	1196 ± 1.1	–
343.15 K, x1 = 0.2997	–	18.64 ± 1.5
343.15 K, x1 = 0.3002	1210.3 ± 1.1	–
343.15 K, x1 = 0.3999	–	18.68 ± 1.5
343.15 K, x1 = 0.4006	1225.9 ± 1.1	–
343.15 K, x1 = 0.4996	–	18.5 ± 1.5
343.15 K, x1 = 0.5009	1240.6 ± 1.1	–
343.15 K, x1 = 0.5991	1256.2 ± 1.1	18.74 ± 1.5
343.15 K, x1 = 0.6997	–	18.78 ± 1.5
343.15 K, x1 = 0.7001	1276 ± 1.1	–
343.15 K, x1 = 0.7999	–	18.84 ± 1.5
343.15 K, x1 = 0.8	1289.7 ± 1.1	–
343.15 K, x1 = 0.8995	1307.5 ± 1.1	–
343.15 K, x1 = 0.8998	–	19.06 ± 1.5
343.15 K, x1 = 1	1325.5 ± 1.1	18.95 ± 1.5
